Measured values published in patent US20250268960A1, “COMPOSITION FOR PREVENTION AND TREATMENT OF OBESITY OR INSULIN RESISTANCE SYNDROME COMPRISING LACTOBACILLUS PLANTARUM HAC03 AND RUTIN” (HANDONG GLOBAL UNIVERSITY INDUSTRY-ACADEMIC COOPERATION …, priority 2023, published 2025).

System: PR/SET domain 16 (PRDM16)
Test: qPCR expression of thermogenesis gene PRDM16 in brown adipose tissue
Format: in vivo, C57BL6 mice
Conditions: mRNA, brown adipose tissue (BAT), high-fat diet mice; compared to HFD group
Experimental: Five-week-old male C57BL6 mice were purchased and acclimated for one week. Then, the mice in each group (n=10) were fed a low-fat diet or high-fat diet. After first allowing them to consume a low-fat diet or high-fat diet for a week, the mice in each group were orally administered with Lactobacillus plantarum HAC03, quercetin, or rutin once a day for 14 weeks.
Then, the expression levels of lipogenesis-related genes were measured at the mRNA level through qPCR.
Specifically, the colons of mice in each experimental group were homogenized, dissolved in Trizol® (RNA extraction buffer, Thermo Fisher), and RNA was extracted according to the protocol provided by the manufacturer. The extracted RNA was quantified, and an equal amount of RNA was synthesized into cDNA by reverse transcription using the SuperiorScript III cDNA synthesis Kit (Enzynomics, Daejeon, South Korea). Thereafter, real-time PCR was performed using each gene-specific primer in Table 3, TOPreal qPCR 2X premix (SYBR Green with high ROX) (Enzynomics, Daejeon, South Korea), and cDNA. Real-time PCR was performed using the ABI 7500 Fast Real time PCR system (Applied Biosystems, Waltham, MA, USA). The relative gene expression levels were calculated using the ÄÄCt method.

## O=c1c(O)c(-c2ccc(O)c(O)c2)oc2cc(O)cc(O)c12 [Q, Quercetin]
  expression level of PRDM16: increased
